In paper PMC9782245, “Synthesis and Structural Optimization of 2,7,9-Trisubstituted purin-8-ones as FLT3-ITD Inhibitors” (International Journal of Molecular Sciences, 2022):

What was measured:
Format in all cases: biochemical
MER = biological target: T1, MER (Homo sapiens, UniProt Q12866); test: Kinase selectivity panel at 1 µM (Eurofins), MER; settings: read-out: residual enzyme activity MER
T1 construct: purchased Eurofins Discovery (France)
T1 sequence (Q12866 21-999): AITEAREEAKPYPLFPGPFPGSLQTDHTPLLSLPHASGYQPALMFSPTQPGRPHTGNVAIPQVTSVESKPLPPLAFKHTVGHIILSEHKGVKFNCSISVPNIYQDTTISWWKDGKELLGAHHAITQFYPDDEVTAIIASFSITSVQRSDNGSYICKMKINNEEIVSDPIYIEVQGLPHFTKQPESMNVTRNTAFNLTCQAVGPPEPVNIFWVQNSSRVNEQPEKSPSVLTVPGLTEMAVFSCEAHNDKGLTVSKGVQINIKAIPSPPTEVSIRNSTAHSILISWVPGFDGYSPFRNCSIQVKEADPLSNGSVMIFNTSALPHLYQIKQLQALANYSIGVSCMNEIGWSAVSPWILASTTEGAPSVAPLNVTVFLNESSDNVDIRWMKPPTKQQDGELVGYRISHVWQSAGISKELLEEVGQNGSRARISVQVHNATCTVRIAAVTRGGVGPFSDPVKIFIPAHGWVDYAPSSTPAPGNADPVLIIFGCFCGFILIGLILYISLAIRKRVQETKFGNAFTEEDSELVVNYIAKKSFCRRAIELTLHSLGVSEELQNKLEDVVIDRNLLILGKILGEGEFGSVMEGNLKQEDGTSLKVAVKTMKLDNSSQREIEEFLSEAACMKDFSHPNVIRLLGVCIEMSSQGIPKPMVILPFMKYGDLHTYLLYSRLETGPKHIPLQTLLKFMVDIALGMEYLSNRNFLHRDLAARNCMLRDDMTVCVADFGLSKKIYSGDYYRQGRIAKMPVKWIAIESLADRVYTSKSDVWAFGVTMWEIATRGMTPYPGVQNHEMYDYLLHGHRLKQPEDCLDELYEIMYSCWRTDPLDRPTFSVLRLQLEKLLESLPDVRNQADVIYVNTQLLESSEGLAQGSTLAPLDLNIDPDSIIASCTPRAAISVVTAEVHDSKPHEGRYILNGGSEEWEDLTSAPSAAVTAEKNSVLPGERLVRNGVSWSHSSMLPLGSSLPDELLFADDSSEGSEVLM
Procedure: (§1) Three representative compounds (14d, 14e, and 15a) were profiled in a 1 µM concentration against 30 kinases that were selected as known off-targets of approved CDK4/6 inhibitors. […] Additional sensitive kinases include STK16, EphA1, MEKK2, SRC, and MER (≤10% of residual enzyme activities), which are not targets of the structurally similar CDK4/6 inhibitor, trilaciclib. We also screened compound 15a, an analogue of 14d, bearing isopropyl at position 7 of the purine instead of the methyl group. This change rapidly diminished the potency against CDK4 (dropped to 90% of residual enzyme activity), but the preference for FLT3 remained (1st rank) (Figure 2).
(§2) CDK/cyclin complexes and FLT3 kinases were assayed as previously described. Protein kinase selectivity was evaluated at a single concentration (1 µM) by screening against 30 enzymes at Eurofins Discovery (France).

MEKK2 = biological target: T2, MEKK2 (Homo sapiens, UniProt Q9Y2U5); test: Kinase selectivity panel at 1 µM (Eurofins), MEKK2; settings: read-out: residual enzyme activity MEKK2
T2 construct: purchased Eurofins Discovery (France)
T2 sequence (Q9Y2U5 1-619): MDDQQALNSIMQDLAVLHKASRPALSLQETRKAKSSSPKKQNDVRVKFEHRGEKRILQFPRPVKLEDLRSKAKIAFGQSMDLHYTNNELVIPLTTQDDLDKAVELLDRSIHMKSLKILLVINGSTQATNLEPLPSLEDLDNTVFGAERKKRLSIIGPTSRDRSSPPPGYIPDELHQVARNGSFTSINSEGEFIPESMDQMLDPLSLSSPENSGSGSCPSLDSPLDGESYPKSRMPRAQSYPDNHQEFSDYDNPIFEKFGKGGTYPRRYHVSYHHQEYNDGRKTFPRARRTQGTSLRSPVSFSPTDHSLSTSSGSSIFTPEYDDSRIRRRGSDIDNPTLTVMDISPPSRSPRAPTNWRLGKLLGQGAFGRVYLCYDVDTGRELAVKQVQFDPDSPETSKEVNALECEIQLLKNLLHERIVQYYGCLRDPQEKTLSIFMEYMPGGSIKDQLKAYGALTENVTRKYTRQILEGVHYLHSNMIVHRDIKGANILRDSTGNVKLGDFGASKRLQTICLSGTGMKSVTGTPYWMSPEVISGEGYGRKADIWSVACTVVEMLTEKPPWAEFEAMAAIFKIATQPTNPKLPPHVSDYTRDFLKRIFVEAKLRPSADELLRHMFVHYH
Procedure: as §1, §2

EphA1 = biological target: T3, EphA1 (Homo sapiens, UniProt P21709); test: Kinase selectivity panel at 1 µM (Eurofins), EphA1; settings: read-out: residual enzyme activity EphA1
T3 construct: purchased Eurofins Discovery (France)
T3 sequence (P21709 26-976): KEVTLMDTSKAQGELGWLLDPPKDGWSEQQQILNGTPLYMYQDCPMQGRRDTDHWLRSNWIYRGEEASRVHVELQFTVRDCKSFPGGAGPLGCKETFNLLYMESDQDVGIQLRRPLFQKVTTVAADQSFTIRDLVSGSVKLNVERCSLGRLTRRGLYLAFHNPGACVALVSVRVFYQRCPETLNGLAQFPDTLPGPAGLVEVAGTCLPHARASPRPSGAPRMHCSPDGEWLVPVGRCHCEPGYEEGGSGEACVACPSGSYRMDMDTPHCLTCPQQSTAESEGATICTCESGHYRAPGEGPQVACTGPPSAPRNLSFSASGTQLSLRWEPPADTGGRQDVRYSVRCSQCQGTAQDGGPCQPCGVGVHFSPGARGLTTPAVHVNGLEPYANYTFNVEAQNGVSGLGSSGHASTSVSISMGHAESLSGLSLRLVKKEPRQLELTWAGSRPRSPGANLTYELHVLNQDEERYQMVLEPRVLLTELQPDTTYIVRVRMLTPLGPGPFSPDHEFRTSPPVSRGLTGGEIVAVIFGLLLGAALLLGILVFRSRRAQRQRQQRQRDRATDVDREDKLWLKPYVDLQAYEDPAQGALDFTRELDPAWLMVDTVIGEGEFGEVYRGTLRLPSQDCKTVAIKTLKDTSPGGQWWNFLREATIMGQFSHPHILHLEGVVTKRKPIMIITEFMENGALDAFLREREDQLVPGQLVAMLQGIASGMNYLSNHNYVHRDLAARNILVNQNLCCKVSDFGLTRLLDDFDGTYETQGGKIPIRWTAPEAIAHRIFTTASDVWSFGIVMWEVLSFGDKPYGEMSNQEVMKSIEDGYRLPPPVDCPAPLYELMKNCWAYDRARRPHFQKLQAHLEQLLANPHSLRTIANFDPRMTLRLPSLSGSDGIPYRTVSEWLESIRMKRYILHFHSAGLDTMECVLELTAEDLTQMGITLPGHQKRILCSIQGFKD
Procedure: as §1, §2

Measured: remaining activity at 1 µM

Cn1c(=O)n(C2CCCC2)c2nc(Nc3ccc(N4CCNCC4)cc3)ncc21 [14d]
≤ 10%: all assays above

Cn1c(=O)n(C2CCCCC2)c2nc(Nc3ccc(N4CCNCC4)cc3)ncc21 [14e]
≤ 10%: all assays above
